Consider two molecules from article PMC3001460, “FYVE-Dependent Endosomal Targeting of an Arrestin-Related Protein in Amoeba” (PLoS ONE, 2010).

Assay [1] concerns the target T1, MBP-FYVE (AdcA FYVE domain) (Dictyostelium discoideum, UniProt Q54CH1).
T1 sequence (Q54CH1 458-530): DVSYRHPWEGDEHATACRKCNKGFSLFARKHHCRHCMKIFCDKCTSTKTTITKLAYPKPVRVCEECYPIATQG
The assay is described as follows: intrinsic tryptophan fluorescence titration. Type of assay: binding. To be noted: read-out: affinity.

For assay [2], the target named is T2, ArfA-His6 (Dictyostelium discoideum, UniProt O00909 1-182).
T2 construct: Preincubated with 100 µM GDPβS, 100 µM GTPγS or no extra nucleotide before the pull-down; The nucleotide state is told by the assay; also called Dd-ArfA; ADP-ribosylation factor ArfA; source: E. coli BL21(DE3), purified (Ni-NTA agarose); not shown: His6, C-terminal, kept
As to the kind of experiment: pull-down; GST-AdcAC on glutathione Sepharose beads, ArfA-His6 preincubated 1 hr at 4°C with 100 µM GDPβS or no extra nucleotide, then overnight at 4°C; 20 mM Tris pH 7.5, 25 mM NaCl, 2 mM DTT, 2 mM EDTA, 2.5 mM MgCl2, 1 mM ATP, 0.2% Triton X-100; Western blot with anti-Arf antibody. To be noted: both partners purified.

T2 sequence (O00909 whole entry): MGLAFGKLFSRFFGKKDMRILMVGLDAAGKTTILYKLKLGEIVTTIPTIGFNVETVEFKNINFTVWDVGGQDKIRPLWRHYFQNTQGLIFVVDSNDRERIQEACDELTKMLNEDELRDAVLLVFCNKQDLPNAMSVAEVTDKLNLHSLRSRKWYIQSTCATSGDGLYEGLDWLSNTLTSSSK

For `O=P(O)(O)O[C@@H]1[C@H](O)[C@H](OP(=O)(O)O)[C@@H](O)[C@H](O)[C@H]1O` [Ins(1,3)P2], the Kd in assay [1] is around 20 µM.

B1: GST-AdcAC (C domain of the arrestin core of AdcA, amino acids 311 to 459, fused to GST) (domain or fragment, Dictyostelium discoideum, UniProt Q54CH1 311-459, looked up)
chain: MLTKGKLHVKTWLNKNAYFPGETLVAKMKANNTSIKPTRKISLVVHHTMQLKTRLYHRCITNAIYKQQYDGFQPCFYGKRYLPFSIPVDLKPSSSLGKHITSSYLLELECDIPMAIDLSVTLPLTLFAPQFLYSTVPSQPPGTPLPPDV
notes: AdcA (arrestin-domain containing protein A) of Dictyostelium discoideum, whole protein 580 amino acids; C domain of the arrestin core, amino acids 311 to 459, in pGEX-KG; also called GST-AdcC; C-terminal domain of the AdcA arrestin core; not shown: GST, N-terminal, kept
Turning to B1, in assay [2], the binding result was “binds”.
